Columns and labels:
[1] = Unbound fraction in hepatocyte incubation, rat; format: in vitro ADME; settings: hepatocytes (hepatocyte incubation mixture), rats hepatocyte incubation, read-out: fu,hep
Procedure: (§1) The unbound fractions of IDP-73152 in various matrices were measured according to the manufacturer’s instructions for the rapid equilibrium dialysis (RED) device (ThermoFisher Scientific, Waltham, MA, USA). Briefly, IDP-73152 was added to the plasma or the microsomal/hepatocyte incubation buffer from various species (i.e., mouse, rat, dog, and human for microsomal incubation; rat for hepatocyte incubation) to obtain final concentrations of the compound at 0.3, 1, and 3 μM. After the membrane insert was placed in the RED plate, the solution containing IDP-73152 was added (400 µL) to the sample chamber, and the dialysis buffer (600 μL) was added to the buffer chamber. The RED plate was sealed with parafilm and then incubated at 37 °C in the orbital shaker (Lab Companion, Daejeon, Korea) at 100 rpm for 5 h. After a 50 μL aliquot was aspirated from both the sample and buffer chambers, an equal volume of protein-free buffer or blank medium was replaced in the aspirated sample or buffer to render the matrices compositionally identical. The IDP-73152 concentration in the buffer/sample chambers (i.e., CBuffer Chamber and CSample Chamber) was determined by an assay. Thus, the fraction unbound was defined as:(2) % Fraction unbound=(CBuffer Chamber/CSample Chamber)×100%

[2] = Blood partitioning (LC-MS/MS-based depletion method), mouse; format: in vitro ADME; settings: whole blood, mice blood, 0.3, 1, 3 μM, read-out: BP (blood-to-plasma concentration ratio)
Procedure: In this study, the partitioning of IDP-73152 in blood samples obtained from mice, rats, dogs, and humans was determined using the LC-MS/MS-based depletion method with slight modifications. DP-73152 was added to an aliquot (1 mL) of blank blood or plasma at a final concentration of 0.3, 1, or 3 μM. The mixture was incubated at 37 °C in a water bath for 60 min. After the incubation, the plasma was separated by centrifugation of the blood samples for 5 min at 10,000× g/4 °C and stored at -80 °C until analysis. The blood-to-plasma concentration ratio (BP) was calculated using the equation:(3) BP=[…], where […] is the concentration of the compound at the corresponding blood concentration in the plasma, and CPL is the concentration from the plasma sample separated from the incubated blood.

[3] = Unbound fraction in plasma (rapid equilibrium dialysis), rat; format: in vitro ADME; settings: rats plasma, 0.3, 1, 3 μM, RED 5 h, read-out: fu,p
Procedure: as §1

[4] = Metabolic stability in liver microsomes, mouse; format: in vitro ADME
Procedure: In this study, the metabolic stability of IDP-73152 in microsomes from mice, rats, dogs, and humans, as well as rat hepatocytes, was determined. For a microsomal incubation study, the incubation mixtures, containing mouse, rat, dog, or human liver microsomes at a protein concentration of 0.5 mg/mL, 3.3 mM MgCl2, and 1.3 mM NADPH, in a 100 mM potassium phosphate buffer (pH 7.4), were preincubated for 3 min at 37 °C. In parallel, a control incubation mixture (i.e., identical composition to that of the incubation mixture without NADPH) was also prepared for comparison. The reaction was initiated by the addition of a 10 × solution of IDP-73152 (final concentration in mixtures of 1 μM) to the incubation mixtures or the control incubation mixtures. The mixtures were incubated in a shaking water bath (37 °C, 90 rpm). Aliquots (30 μL) were collected at 0, 15, 30, and 45 min from the mixture and the reaction was terminated by the addition of a 4-fold volume of ice-cold acetonitrile to the sample. The mixture was then vortexed for 5 min and centrifuged for 10 min at 10,000× g. The supernatant was collected and stored at -80 °C until the analysis. For the hepatocyte incubation study, rat hepatocytes were freshly prepared using the two-step collagenase perfusion method with slight modifications. After the isolation, cell viability during the preparation process was first determined by a trypan blue exclusion assay prior to the stability study. The preparation was considered adequate for subsequent studies if the viability was greater than 80%. When appropriate, the hepatocytes were resuspended in Williams' media E containing 10% fetal bovine serum, 1% penicillin-streptomycin, and 0.01% insulin-transferrin-selenium (i.e., 10 mg/mL insulin, 5.5 mg/mL transferrin, and 5 mg/mL selenium) at pH 7.4. The reaction was carried out with the hepatocyte suspension prepared at 1 × 10^6 cells/mL (0.5 mL) and initiated by the addition of equal volume of IDP-73152 solution (i.e., final concentration of the compound at 1 μM in 0.5 × 10^6 cells/mL of hepatocytes) to the hepatocyte suspension. […] Assuming first-order disappearance kinetics, the slope k of the logarithmically transformed IDP-73152 concentration in the sample versus time plot was determined by the linear regression analysis of the data. The total intrinsic clearance (CLint,mic, μL/min/mg protein for microsomal incubation study and CLint,hep, μL/min/million cells for hepatocytes incubation study) was then calculated using the following equations:(4) CLint, mic=k×Volume of incubation medium (μL)/Protein in incubation medium (mg) (5) CLint,hep=k×Volume of incubation (μL)/Number of cells in incubation (×10^6) The unbound intrinsic clearance, with respect to the whole liver ([…]), was then estimated for the two cases. […]

[5] = test system: methicilin-resistant Staphylococus aureus; settings: infected mice, twice-a-day dosing; cited from earlier work

Compound `CC(C)(C)[C@H](NC(=O)[C@H](CC1CCCC1)CN(O)C=O)C(=O)N1CCC(NCc2cc(F)c(F)cc2F)CC1` [IDP-73152] has a fraction unbound at 5 h [1] of 0.492 ± 0.068, a blood plasma ratio at 60 min [2] of 1.31 ± 0.13 and a fraction unbound at 5 h [3] of 0.0582 ± 0.005. For the same compound, the “hepatic ER (extraction ratio)” value ([4]; mice, from microsomal clearance, well-stirred model) was 0.102 ± 0.002, the “CLu,int,H” value ([4]; mice, scaled up to the whole liver from microsomes) was 0.539 ± 0.011 L/h and the CLhep predicted at 1 μM ([4]; mouse, liver microsomes, pH 7.4, mice, read-out: CLh calculated from the CLint,mic (converted)) was 22.7 mL/min/kg. The microsomal CLint at 1 μM ([4]; mouse, pH 7.4, mice liver microsomes 0.5 mg/mL, 1 μM, read-out: CLint,mic) was 80.1 ± 1.7 µL/min/mg and the “ED50 (oral dose at which the survival rate was 50%)” value [5] was 16.6 mg/kg.

From article PMC9227536, “Prediction of Pharmacokinetics of IDP-73152 in Humans Using Physiologically-Based Pharmacokinetics” (Pharmaceutics, 2022)
